# Tested on: CL18_M− cell line
# Assay: Light chain gene conversion (GC) analysis according to Reversion assay
# Type: cell-based, chicken
# Details: one and two weeks of culture, PI3Kα Inhibitor 2 at 200 nM, versus CAL-101, CZC 24832, AS 604850 and CS(−)
# Experimental: A frozen stock of the CL18_M− cell line (3.0×10^6 cells) was awaken with 10 mL of CS(−) medium, using a 25 cm^2 Flask, and the cells were then cultured in a CO2 incubator (39.5° C., 5% CO2). On the following day, 2 mL each of a CS(−) medium, to which each drug had been added, was added into each well of a 24 deep well plate (ThermoFisher Scientific, 95040480), and the cells were then seeded thereon to a cell density of 6.0×10^4 cells/mL (wherein the cell concentration and the survival rate were measured using CASY cell counter). After individual samples had been cultured for 2 days, the samples were subcultured under the same conditions to result in a cell density of 1.0×10^4 cells/mL. […] Thereafter, a plot, in which the vertical axis indicated FITC (Goat anti-Chicken IgM Antibody FITC Conjugated) and the longitudinal axis indicated PE (none), was developed, and the percentage of PE-_FITC+(cIgM+) cells was then calculated.
# Meanwhile, after completion of the culture for 7 days, individual samples were subcultured under the same conditions to result in a cell density of 6.0×10^4 cells/mL. […] At the time point of Day 14 of the culture, individual samples were measured using FACS Canto II Flow Cytometer, as with the measurement on Day 7. […]
structure (smiles),measurement,value
Cc1nc(NC(=O)N2CCC[C@H]2C(N)=O)sc1-c1csc(C(C)(C)C)n1 [A66],Reversion activity (percentage of IgM expression-positive cells),higher Reversion activity

# — US11572402B2, “Method for promoting diversification of antibody variable region” (Chiome Bioscience Inc., priority 2017, dated 2023)
